ChEMBL document CHEMBL3351747, “Structure-based design of β1i or β5i specific inhibitors of human immunoproteasomes” (J Med Chem, 2014)
pIC50: −log10 of the molar value.

Legend:
[1] = target: T1, Proteasome subunit beta type-9 (Homo sapiens, UniProt P28065); assay: Inhibition of proteasome subunit beta-1i in human RPMI8226 cells using BODIPY-NC001 by fluorescent densitometry; assay type: cell-based, RPMI-8226
T1 sequence (P28065 whole entry): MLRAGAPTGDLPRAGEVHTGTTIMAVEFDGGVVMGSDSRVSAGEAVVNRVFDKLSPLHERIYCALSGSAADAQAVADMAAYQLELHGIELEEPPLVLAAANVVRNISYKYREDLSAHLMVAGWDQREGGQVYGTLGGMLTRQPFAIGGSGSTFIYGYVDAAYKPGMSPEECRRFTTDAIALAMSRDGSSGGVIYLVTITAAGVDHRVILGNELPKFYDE

[2] = Inhibition of 20s proteasome subunit beta-1c in human Raji cells using BODIPY- epoxomicin by fluorescent densitometry; assay type: cell-based
[3] = target: T2, Proteasome subunit beta type-10 (Homo sapiens, UniProt P40306); assay: Inhibition of proteasome subunit beta-2i in human Raji cells using BODIPY- epoxomicin by fluorescent densitometry; assay type: cell-based
T2 sequence (P40306 whole entry): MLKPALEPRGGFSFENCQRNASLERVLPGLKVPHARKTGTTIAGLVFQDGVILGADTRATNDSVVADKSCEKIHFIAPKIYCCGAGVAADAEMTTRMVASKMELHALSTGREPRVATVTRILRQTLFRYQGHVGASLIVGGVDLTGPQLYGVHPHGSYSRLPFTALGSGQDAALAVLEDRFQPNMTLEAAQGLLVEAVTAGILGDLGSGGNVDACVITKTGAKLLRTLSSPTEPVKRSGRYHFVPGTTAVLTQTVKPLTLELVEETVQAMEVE

[4] = Inhibition of 20s proteasome subunit beta-5c in human Raji cells using BODIPY-NC005 by fluorescent densitometry; assay type: cell-based
[5] = Inhibition of 20s proteasome subunit beta-2c in human RPMI8226 cells using BODIPY-epoxomicin by fluorescent densitometry; assay type: cell-based; settings: rpmi-8226
[6] = Inhibition of 20s proteasome subunit beta-2c in human Raji cells using BODIPY- epoxomicin by fluorescent densitometry; assay type: cell-based
[7] = target: T2, Proteasome subunit beta type-10; assay: Inhibition of proteasome subunit beta-2i in human RPMI8226 cells using BODIPY-epoxomicin by fluorescent densitometry; assay type: cell-based, RPMI-8226
[8] = target: T3, Proteasome subunit beta type-8 (Homo sapiens, UniProt P28062); assay: Inhibition of proteasome subunit beta-5i in human RPMI8226 cells using BODIPY-NC005 by fluorescent densitometry; assay type: cell-based, RPMI-8226
T3 sequence (P28062 whole entry): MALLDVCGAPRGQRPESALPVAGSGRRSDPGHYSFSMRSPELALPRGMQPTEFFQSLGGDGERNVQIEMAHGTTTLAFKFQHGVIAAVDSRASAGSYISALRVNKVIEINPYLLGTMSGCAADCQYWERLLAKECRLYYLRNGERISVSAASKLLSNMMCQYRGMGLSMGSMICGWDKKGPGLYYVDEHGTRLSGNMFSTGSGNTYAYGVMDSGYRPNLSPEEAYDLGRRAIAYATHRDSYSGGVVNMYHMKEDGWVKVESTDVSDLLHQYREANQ

[9] = target: T3, Proteasome subunit beta type-8; assay: Inhibition of proteasome subunit beta-5i in human Raji cells using BODIPY-NC005 by fluorescent densitometry; assay type: cell-based
[10] = target: T1, Proteasome subunit beta type-9; assay: Inhibition of proteasome subunit beta-1i in human Raji cells using BODIPY- epoxomicin by fluorescent densitometry; assay type: cell-based
[11] = Inhibition of 20s proteasome subunit beta-5c in human RPMI8226 cells using BODIPY-NC005 by fluorescent densitometry; assay type: cell-based; settings: rpmi-8226
[12] = Inhibition of 20s proteasome subunit beta-1c in human RPMI8226 cells using BODIPY-NC001 by fluorescent densitometry; assay type: cell-based; settings: rpmi-8226
Raji = assay: Ratio of IC50 for 20s proteasome subunit beta-1c to IC50 for proteasome subunit beta-1i in human Raji cells; assay type: cell-based

| SMILES | pIC50 [2] | pIC50 [4] | pIC50 [9] | pIC50 [10] | other results |
| --- | --- | --- | --- | --- | --- |
| C[C@@H](NC(=O)CN1CCOCC1)C(=O)N[C@@H](Cc1c[nH]c2ccccc12)C(=O)N[C@@H](CC1CCCCC1)C(=O)[C@@]1(C)CO1 | < 5.00 | 6.08 | 7.49 | < 5.00 | pIC50 [1]: 5.21; pIC50 [3]: < 5.00; pIC50 [5]: < 5.00; pIC50 [6]: < 5.00; pIC50 [7]: < 5.00; pIC50 [8]: 7.23; pIC50 [11]: 5.54; pIC50 [12]: < 5.00 |
| COc1ccc(C[C@H](NC(=O)[C@H](C)NC(=O)CN2CCOCC2)C(=O)N[C@@H](CC23CC4CC(CC(C4)C2)C3)C(=O)[C@@]2(C)CO2)cc1 | – | < 4.30 | < 4.30 | – | – |
| COc1ccc(C[C@H](NC(=O)[C@@H](C)NC(=O)CN2CCOCC2)C(=O)N[C@@H](Cc2ccc(-c3ccccc3)cc2)C(=O)[C@@]2(C)CO2)cc1 | – | 8.00 | 8.92 | – | – |
| CC1=C(C(=O)N[C@H](C)C(=O)N[C@@H](Cc2c[nH]c3ccccc23)C(=O)N[C@H](/C=C/S(C)(=O)=O)Cc2ccccc2)Cc2ccccc21 | < 4.00 | 4.60 | 7.28 | < 4.00 | pIC50 [1]: < 4.00; pIC50 [3]: < 4.00; pIC50 [5]: < 4.00; pIC50 [6]: < 4.00; pIC50 [7]: < 4.00; pIC50 [8]: 6.41; pIC50 [11]: < 4.00; pIC50 [12]: < 4.00 |
| COc1ccc(C[C@H](NC(=O)[C@@H](C)NC(=O)CN2CCOCC2)C(=O)N[C@@H](CC2CCCCC2)C(=O)[C@@]2(C)CO2)cc1 | – | – | 7.44 | < 5.00 | pIC50 [1]: 5.14; pIC50 [8]: 7.00 |
| COc1ccc(C[C@H](NC(=O)[C@H](C)NC(=O)C2=C(C)c3ccccc3C2)C(=O)N[C@@H](Cc2ccccc2)C(=O)[C@@]2(C)CO2)cc1 | – | 8.22 | 8.30 | – | – |
| C[C@@H](NC(=O)CN1CCOCC1)C(=O)N[C@@H](Cc1c[nH]c2ccccc12)C(=O)N[C@@H](Cc1ccccc1)C(=O)[C@@]1(C)CO1 | – | 6.98 | 7.89 | – | – |
| COc1ccc(C[C@H](NC(=O)[C@H](C)NC(=O)CN2CCOCC2)C(=O)N[C@@H](CC2CCCCC2)C(=O)[C@@]2(C)CO2)cc1 | – | – | 8.18 | 6.52 | pIC50 [1]: 6.43; pIC50 [8]: 7.36 |
| CCCC[C@H](NC(=O)[C@@H]1CCCN1C(=O)[C@H](C)NC(=O)CN=[N+]=[N-])C(=O)N[C@@H](CC1CCCCC1)C(=O)[C@@]1(C)CO1 | 5.47 | – | – | 7.06 | pIC50 [3]: < 4.52; Ratio IC50 (Raji): 39 |
| C[C@@H](NC(=O)CN1CCOCC1)C(=O)N[C@@H](Cc1c[nH]c2ccccc12)C(=O)N[C@@H](Cc1ccc(-c2ccccc2)cc1)C(=O)[C@@]1(C)CO1 | – | 7.85 | 8.68 | – | – |
| COc1ccc(C[C@H](NC(=O)[C@H](C)NC(=O)CN2CCOCC2)C(=O)N[C@@H](Cc2ccccc2)C(=O)[C@@]2(C)CO2)cc1 | < 5.00 | 7.27 | – | – | pIC50 [5]: 5.96; pIC50 [6]: 5.96; pIC50 [11]: 6.74; pIC50 [12]: < 5.30 |
| COc1ccc(C[C@H](NC(=O)[C@@H](C)NC(=O)C2=C(C)c3ccccc3C2)C(=O)N[C@@H](Cc2ccccc2)C(=O)[C@@]2(C)CO2)cc1 | – | 6.80 | 8.52 | – | – |
| COc1ccc(C[C@H](NC(=O)[C@@H](C)NC(=O)CN2CCOCC2)C(=O)N[C@@H](Cc2ccccc2)C(=O)[C@@]2(C)CO2)cc1 | – | 6.94 | – | – | – |
| COc1ccc(C[C@H](NC(=O)[C@H](C)NC(=O)CN2CCOCC2)C(=O)N[C@H](/C=C/S(C)(=O)=O)Cc2ccccc2)cc1 | – | 4.85 | 6.41 | – | – |
| CCCC[C@H](NC(=O)[C@@H]1CCCN1C(=O)[C@H](C)NC(=O)CN=[N+]=[N-])C(=O)N[C@@H](Cc1ccccc1)C(=O)[C@@]1(C)CO1 | 6.24 | – | – | 7.18 | pIC50 [3]: < 4.00; Ratio IC50 (Raji): 9 |
| CCCC[C@H](NC(=O)[C@@H]1C[C@H](F)CN1C(=O)[C@H](C)NC(=O)CN=[N+]=[N-])C(=O)N[C@@H](CC(C)C)C(=O)[C@@]1(C)CO1 | 6.29 | – | – | 6.66 | Ratio IC50 (Raji): 2.3 |
| CCCC[C@H](NC(=O)[C@@H]1CSCN1C(=O)[C@H](C)NC(=O)CN=[N+]=[N-])C(=O)N[C@@H](CC(C)C)C(=O)[C@@]1(C)CO1 | 6.62 | – | – | 7.17 | Ratio IC50 (Raji): 6.5 |
